Experimental data: patent US4261989A, “Geldanamycin derivatives and antitumor drug” (Kaken Chemical Co. Ltd., priority 1979, dated 1981)

What follows are molecules tested on cancer cell W-2K-11 (assay: Growth inhibition of cancer cell W-2K-11 (percent inhibition of cell multiplication, Table 2)). Settings: Mus musculus, 48 h, read-out: Percent inhibition (%).
Type: cell-based, mouse
Procedure: Cancer cell W-2K-11 was obtained by transforming fibroblast C3H-2K clone derived from kidney of mouse by cancerogenic virus. The cancer cell W-2K-11 was cultured by the following method.
(1) Preparation of culture medium
9.4 Gram of Eagle's MEM culture media (manufactured by Nissui Seiyaku K. K.) was dissolved in 900 ml. of distilled water and the solution was sterilized under high pressure at 120° C. for 15 minutes and cooled. 100 Ml. of calf serum and 3-5 ml. of 10% aqueous solution of sodium bicarbonate were added to the solution to adjust pH to 7.1-7.2. 10 Ml. of an aqueous solution of L-glutamine (2.92 g./100 ml.) filtered by a millipore filter was added just before the use of the solution as culture medium.
(2) Preparation of transplanted cell solution
The cancer cell W-2K-11 stored in a freezer at -80° C. was melted at room temperature and treated by a centrifugal separator at 670 g. for 5 minutes. The precipitated cell was dispersed in 50 ml. of the culture medium (1). The suspension was charged into Roux flask and cultured at 37° C. The multiplication of the cells was initiated and accomplished after 3 to 4 days. The cultured mixture was decanted and 10 ml. of 0.2% trypsin solution was added and the mixture was kept at room temperature for 2 to 3 minutes and the trypsin mixture was decanted and then, 50 ml. of the culture medium (1) was added to prepare a suspension of cells.
(3) Incubation of cells and addition of sample
1.8 Ml. of the suspension of cells (2) was charged into each Petri dish and incubated in a carbon dioxide gas incubator (5% of CO2; 95% of air) at 37° C. Twenty four hours after the initiation of the incubation, 0.2 ml. of each ethanol solution of each sample was added, and the incubation was continued. Forty eight hours after the addition of the sample, numbers of survival cells were counted under a microscopic observation and each percent inhibition of cell multiplication was calculated. [formula]

Molecule	inhibition at 1 µg/mL [%]	inhibition at 10 µg/mL [%]	inhibition at 5 µg/mL [%]
CNC(=O)OC1C(C)=CC(C)C(O)C(OC)CC(C)CC2=C(OC)C(=O)C=C(N=C(OC)C(C)=CC=CC1OC)C2=O (centres unmarked) [Example 44, 1-O-methyl-7-OCONH-methyl-Geldanamycin]	94	80	
CCCCCCCCCCNC1=C2CC(C)CC(OC)C(O)C(C)/C=C(\C)C(OC(N)=O)C(OC)/C=C\C=C(/C)C(=O)NC(=CC1=O)C2=O (centres unmarked) [Example 10]		48	
COC1/C=C\C=C(/C)C(=O)NC2=CC(=O)C(NCC(C)C)=C(CC(C)CC(OC)C(O)C(C)/C=C(\C)C1OC(N)=O)C2=O (centres unmarked) [Example 12]	90		
COC1/C=C\C=C(/C)C(=O)NC2=CC(=O)C(N3CC3)=C(CC(C)CC(OC)C(O)C(C)/C=C(\C)C1OC(N)=O)C2=O (centres unmarked) [Example 2, 17-ethyleneimino-Geldenamycin]	97		
COC1C=CC=C(C)C(=O)NC2=CC(=O)C(NCc3ccncc3)=C(CC(C)CC(OC)C(O)C(C)C=C(C)C1OC(N)=O)C2=O (centres unmarked) [Example 30]			95
COC1=C2CC(C)CC(OC)C(O)C(C)C=C(C)C(OC(N)=O)C(OC)C=CC=C(C)C(=O)NC(=C(I)C1=O)C2=O (centres unmarked) [Example 38, 19-iodo-Geldanamycin]			95
COC1C=CC=C(C)C(=O)NC2=CC(=O)C(NCCc3ccccn3)=C(CC(C)CC(OC)C(O)C(C)C=C(C)C1OC(N)=O)C2=O (centres unmarked) [Example 31]			93
CCCCCNC1=C2CC(C)CC(OC)C(O)C(C)/C=C(\C)C(OC(N)=O)C(OC)/C=C\C=C(/C)C(=O)NC(=CC1=O)C2=O (centres unmarked) [Example 6]	90		

Same assay, conditions: Mus musculus; concentration 1 μg/ml; 48 hours after addition of sample; W-2K-11 cells; read-out: Percent inhibition (%)

Molecule	inhibition at 1 µg/mL [%]
CCCCNC1=C2CC(C)CC(OC)C(O)C(C)/C=C(\C)C(OC(N)=O)C(OC)/C=C\C=C(/C)C(=O)NC(=CC1=O)C2=O (centres unmarked) [Example 5]	85
COC1=NC2=CC(=O)C(OC)=C(CC(C)CC(OC)C(O)C(C)C=C(C)C(OC(N)=O)C(OC)C=CC=C1C)C2=O (centres unmarked) [Example 40, 1-O-methyl-Geldanamycin]	80
CNC(=O)OC1C(C)=CC(C)C(O)C(OC)CC(C)CC2=C(OC)C(=O)C=C(C2=O)N(C)C(=O)C(C)=CC=CC1OC (centres unmarked) [Example 42, 21-N-methyl-7-OCONH-methyl-Geldanamycin]	82
COC1/C=C\C=C(/C)C(=O)NC2=CC(=O)C(NC3CCCC3)=C(CC(C)CC(OC)C(O)C(C)/C=C(\C)C1OC(N)=O)C2=O (centres unmarked) [Example 14]	98
C=CCNC1=C2CC(C)CC(OC)C(O)C(C)/C=C(\C)C(OC(N)=O)C(OC)/C=C\C=C(/C)C(=O)NC(=CC1=O)C2=O (centres unmarked) [Example 22]	93
COC1C=CC=C(C)C(=O)NC2=CC(=O)C(NCCc3ccccc3)=C(CC(C)CC(OC)C(O)C(C)C=C(C)C1OC(N)=O)C2=O (centres unmarked) [Example 24]	82
CCCCCCNC1=C2CC(C)CC(OC)C(O)C(C)/C=C(\C)C(OC(N)=O)C(OC)/C=C\C=C(/C)C(=O)NC(=CC1=O)C2=O (centres unmarked) [Example 7]	90
CCCCCCCNC1=C2CC(C)CC(OC)C(O)C(C)/C=C(\C)C(OC(N)=O)C(OC)/C=C\C=C(/C)C(=O)NC(=CC1=O)C2=O (centres unmarked) [Example 8]	96
COC1/C=C\C=C(/C)C(=O)NC2=CC(=O)C(NC3CC3)=C(CC(C)CC(OC)C(O)C(C)/C=C(\C)C1OC(N)=O)C2=O (centres unmarked) [Example 13]	94
COC1/C=C\C=C(/C)C(=O)NC2=CC(=O)C(NCCO)=C(CC(C)CC(OC)C(O)C(C)/C=C(\C)C1OC(N)=O)C2=O (centres unmarked) [Example 18]	98
CNC(=O)OC1C(C)=CC(C)C(O)C(OC)CC(C)CC2=C(OC)C(=O)C=C(NC(=O)C(C)=CC=CC1OC)C2=O (centres unmarked) [Example 43, 7-OCONH-methyl Geldanamycin]	60
CCCNC1=C2CC(C)CC(OC)C(O)C(C)/C=C(\C)C(OC(N)=O)C(OC)/C=C\C=C(/C)C(=O)NC(=CC1=O)C2=O (centres unmarked) [Example 1, 17-n-propylamino-Geldanamycin]	92
COC1C=CC=C(C)C(=O)NC2=CC(=O)C(NCc3ccccc3)=C(CC(C)CC(OC)C(O)C(C)C=C(C)C1OC(N)=O)C2=O (centres unmarked) [Example 23]	88

Same assay, conditions: Mus musculus; concentration 5 μg/ml; 48 hours after addition of sample; W-2K-11 cells; read-out: Percent inhibition (%)

Molecule	inhibition at 5 µg/mL [%]
COC1C=CC=C(C)C(=O)NC2=CC(=O)C(NCc3ccccn3)=C(CC(C)CC(OC)C(O)C(C)C=C(C)C1OC(N)=O)C2=O (centres unmarked) [Example 28]	90
COC1C=CC=C(C)C(=O)NC2=CC(=O)C(NCc3cccnc3)=C(CC(C)CC(OC)C(O)C(C)C=C(C)C1OC(N)=O)C2=O (centres unmarked) [Example 29]	92
COC1C=CC=C(C)C(=O)NC2=CC(=O)C(NCCN3CCOCC3)=C(CC(C)CC(OC)C(O)C(C)C=C(C)C1OC(N)=O)C2=O (centres unmarked) [Example 26]	93
COC1=C2CC(C)CC(OC)C(O)C(C)C=C(C)C(OC(N)=O)C(OC)C=CC=C(C)C(=O)NC(=C(Br)C1=O)C2=O (centres unmarked) [Example 37, 19-bromo-Geldanamycin]	84
CNCCNC1=C2CC(C)CC(OC)C(O)C(C)C=C(C)C(OC(N)=O)C(OC)C=CC=C(C)C(=O)NC(=CC1=O)C2=O (centres unmarked) [Example 34]	67
COC1/C=C\C=C(/C)C(=O)NC2=CC(=O)C(NCCN)=C(CC(C)CC(OC)C(O)C(C)/C=C(\C)C1OC(N)=O)C2=O (centres unmarked) [Example 4]	57
COC1C=CC=C(C)C(=O)NC2=CC(=O)C(NCCN3CCCC3)=C(CC(C)CC(OC)C(O)C(C)C=C(C)C1OC(N)=O)C2=O (centres unmarked) [Example 32]	84
COC1=C2CC(C)CC(OC)C(O)C(C)C=C(C)C(OC(N)=O)C(OC)C=CC=C(C)C(=O)NC(=C(Cl)C1=O)C2=O (centres unmarked) [Example 39, 19-chloro-Geldanamycin]	91

Same assay, conditions: Mus musculus; concentration 10 μg/ml; 48 hours after addition of sample; W-2K-11 cells; read-out: Percent inhibition (%)

Molecule	inhibition at 10 µg/mL [%]
COC1=NC2=CC(=O)C(OC)=C(CC(C)CC(OC)C(O)C(C)C=C(C)C(OC(N)=O)C(OC)C=CC=C1C)C2=O (centres unmarked) [Example 40, 1-O-methyl-Geldanamycin]	95
CNC(=O)OC1C(C)=CC(C)C(O)C(OC)CC(C)CC2=C(OC)C(=O)C=C(C2=O)N(C)C(=O)C(C)=CC=CC1OC (centres unmarked) [Example 42, 21-N-methyl-7-OCONH-methyl-Geldanamycin]	94
COC1/C=C\C=C(/C)C(=O)NC2=CC(=O)C(NCCOCCO)=C(CC(C)CC(OC)C(O)C(C)/C=C(\C)C1OC(N)=O)C2=O (centres unmarked) [Example 19]	88
COC1/C=C\C=C(/C)C(=O)NC2=CC(=O)C(NC3CCCC3)=C(CC(C)CC(OC)C(O)C(C)/C=C(\C)C1OC(N)=O)C2=O (centres unmarked) [Example 14]	97
COC1/C=C\C=C(/C)C(=O)NC2=CC(=O)C(NCCCCN)=C(CC(C)CC(OC)C(O)C(C)/C=C(\C)C1OC(N)=O)C2=O (centres unmarked) [Example 21]	53
CCCCCCCCCCCCNC1=C2CC(C)CC(OC)C(O)C(C)/C=C(\C)C(OC(N)=O)C(OC)/C=C\C=C(/C)C(=O)NC(=CC1=O)C2=O (centres unmarked) [Example 11]	79
COC1C=CC=C(C)C(=O)NC2=CC(=O)C(N3CCCC3)=C(CC(C)CC(OC)C(O)C(C)C=C(C)C1OC(N)=O)C2=O (centres unmarked) [Example 25]	97
CCCCCCCCNC1=C2CC(C)CC(OC)C(O)C(C)/C=C(\C)C(OC(N)=O)C(OC)/C=C\C=C(/C)C(=O)NC(=CC1=O)C2=O (centres unmarked) [Example 9]	67
COC1/C=C\C=C(/C)C(=O)NC2=CC(=O)C(NC3CCCCCC3)=C(CC(C)CC(OC)C(O)C(C)/C=C(\C)C1OC(N)=O)C2=O (centres unmarked) [Example 16]	98
CNC(=O)OC1C(C)=CC(C)C(O)C(OC)CC(C)CC2=C(OC)C(=O)C=C(NC(=O)C(C)=CC=CC1OC)C2=O (centres unmarked) [Example 43, 7-OCONH-methyl Geldanamycin]	96

Same assay, conditions: concentration 1 μg/ml; 48 hours after addition of sample; W-2K-11 cells

Molecule	Percent inhibition (%)
17-demethoxy-17,19-bisdimethylamino-Geldenamycin [Example 35]	92

Same assay, conditions: concentration 5 μg/ml; 48 hours after addition of sample; W-2K-11 cells

Molecule	Percent inhibition (%)
CO[C@H]1/C=C\C=C(/C)C(=O)NC2=CC(=O)C(NCCN3CCCCC3)=C(C[C@@H](C)C[C@H](OC)[C@H](O)[C@@H](C)/C=C(\C)[C@@H]1OC(N)=O)C2=O [Example 27]	57

Same assay, conditions: concentration 10 μg/ml; 48 hours after addition of sample; W-2K-11 cells

Molecule	Percent inhibition (%)
17-demethoxy-17,19-bisdimethylamino-Geldenamycin [Example 35]	97
COC1C=CC=C(C)C(=O)NC2=CC(=O)C(NCC34CC5CC(CC(C5)C3)C4)=C(CC(C)CC(OC)C(O)C(C)C=C(C)C1OC(N)=O)C2=O (centres unmarked) [Example 17]	98
